Here are results for 31 compounds from patent publication US8334288B2, “4-phenoxymethylpiperidines as modulators of GPR119 activity” (IRM LLC, priority 2008, dated 2012).

As usually defined, the EC50 is the concentration giving half of the maximal effect. Low values mean greater potency, high ones weaker potency.

The assay addresses T1, human GPR119 (Homo sapiens, UniProt Q8TDV5).
T1 construct: expressed in transfected cells; host or cells: Flp-In-CHO cells (Invitrogen, Cat. #R758-07), stably transfected with pcDNA5/FRT-human GPR119 plus pOG44
T1 sequence (Q8TDV5 1-335): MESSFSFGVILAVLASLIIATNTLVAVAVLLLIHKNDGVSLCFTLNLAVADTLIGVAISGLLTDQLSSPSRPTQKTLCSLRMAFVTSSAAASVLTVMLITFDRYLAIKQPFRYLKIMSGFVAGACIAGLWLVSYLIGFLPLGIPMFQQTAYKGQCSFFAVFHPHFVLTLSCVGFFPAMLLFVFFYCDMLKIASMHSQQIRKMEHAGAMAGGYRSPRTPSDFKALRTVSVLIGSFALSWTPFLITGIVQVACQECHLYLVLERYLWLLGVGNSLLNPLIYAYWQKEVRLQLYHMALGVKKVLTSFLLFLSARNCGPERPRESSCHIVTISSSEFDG
The assay can be described thus: Cyclic AMP assay in stable cell line (HTRF, Flp-In-CHO-hGPR119 cells). The class given is cell-based. Particulars: increase in intracellular cAMP, 30 minutes at 37° C., 1 mM IBMX. As for the experimental part:
Flp-In-CHO cells (Invitrogen, Cat. #R758-07) are maintained in Ham's F12 medium supplemented with 10% fetal bovine serum, 1% antibiotic mixture and 2 mM L-glutamine. The cells are transfected with a DNA mixture containing human GPR119 in pcDNA5/FRT vector and the pOG44 vector (1:9) using Fugene6 (Roche), according to the manufacturer's instruction. After 48 h, the medium is changed to medium supplemented with 400 μg/ml hygromycin B to initiate the selection of stably transfected cells.
To test the activity of compounds of the invention, Flp-In-CHO-hGPR119 cells are harvested and resuspended in DMEM plus 3% lipid-depleted fetal bovine serum. Forth μl of cells are plated in 384 well plates at a density of 15,000 cells/well. IBMX (3-isobutyl-1-methyl-xanthine) is added to the cells to a final concentration of 1 mM, followed by the addition of 500 nl of the compound to be tested. The cells are incubated at 37° C. for 30 minutes. Equal volume (20 μl) of the HTRF reagents, anti-cAMP-Cryptate and cAMP-XL665, are added to the cells. The plates are incubated at rt for 1 h and read on a HTRF reader according to the manufacturer's instruction.
For `CC1(OC(=O)N2CCC(COc3c(F)cc(-c4cnc(C(=O)NCCCO)nc4)cc3F)CC2)CC1` [Example J15], the 50% effective concentration (EC50) is 45 nM.
The same measure for `CCc1cnc(N2CCC(COc3c(F)cc(-c4ccc(Cn5ncnn5)cc4)cc3F)CC2)nc1` [Example H5]: 28 nM; for `CCc1cnc(N2CCC(COc3c(F)cc(-c4ccc(CO)cc4)cc3F)CC2)nc1` [Example A14]: 5 nM.
Regarding `CCc1cnc(N2CCC(COc3c(F)cc(-c4ccc(-c5nn[nH]n5)nc4)cc3F)CC2)nc1` [Example B5], the EC50 is 79 nM.
The same measure for `CCOC(=O)CCNC(=O)c1ncc(-c2cc(F)c(OCC3CCN(C(=O)OC4(C)CC4)CC3)c(F)c2)cn1` [Example J8]: 10 nM.
For `CC1(OC(=O)N2CCC(COc3c(F)cc(-c4cnc5[nH]c(=O)oc5c4)cc3F)CC2)CC1` [Example J11], the EC50 was 263 nM. This EC50 lies about 26-fold higher than the previous one.
Compound `CC1(OC(=O)N2CCC(COc3c(F)cc(-c4cnc(C(=O)N5CCC(O)CC5)nc4)cc3F)CC2)CC1` [Example J1] registered an EC50 of 13 nM.
As for `CCc1cnc(N2CCC(COc3c(F)cc(-c4ccc(S(C)(=O)=O)cn4)cc3F)CC2)nc1` [Example A1, 2-(4-((2,6-difluoro-4-(5-(methylsulfonyl)pyridin-2-yl)phenoxy)methyl)piperidin-1-yl)-5-ethylpyrimidine], a half-maximal effect (EC50) was put at 1 nM.
`CCCS(=O)(=O)c1ccc(-c2cc(F)c(OCC3CCN(C(=O)OC(C)CC)CC3)c(F)c2)c(C)n1` (stereo not shown) [Example F6, sec-butyl 4-((2,6-difluoro-4-(2-methyl-6-(propylsulfonyl)pyridin-3-yl)phenoxy)methyl)piperidine-1-carboxylate]: the EC50 was 1 nM. This counts as single-digit nanomolar.
In the case of `CCc1cnc(N2CCC(COc3c(F)cc(-c4ccc(S(C)(=O)=O)cc4)cc3F)CC2)nc1` [Example A6], the EC50 amounted to 0.7 nM.
Compound `CC1(OC(=O)N2CCC(COc3c(F)cc(-c4cnc(C(=O)N5CC[C@H](O)C5)nc4)cc3F)CC2)CC1` [Example J19] registered an EC50 of 47 nM.
The compound `CCc1cnc(N2CCC(COc3c(F)cc(-c4ccc(CN(C)C(C)=O)cc4)cc3F)CC2)nc1` [Example L1, N-((4′-((1-(5-ethylpyrimidin-2-yl)piperidin-4-yl)methoxy)-3′,5′-difluorobiphenyl-4-yl)methyl)-N-methylacetamide] showed an EC50 of 62 nM.
In turn, `CC1(OC(=O)N2CCC(COc3c(F)cc(-c4ccc(C5(N)CC5)nc4)cc3F)CC2)CC1` [Example A39] showed an EC50 of 37 nM.
The same measure for `CCc1cnc(N2CCC(COc3c(F)cc(-c4ccc(C(C)(C)O)nc4)cc3F)CC2)nc1` [Example A38]: 29 nM; for `CCN(CCO)C(=O)c1ncc(-c2cc(F)c(OCC3CCN(C(=O)OC4(C)CC4)CC3)c(F)c2)cn1` [Example J5]: 19 nM.
The same measure for `CC1(OC(=O)N2CCC(COc3c(F)cc(-c4ccc(S(C)(=O)=O)cc4)cc3F)CC2)CC1` [Example D1, 1-methylcyclopropyl 4-((3,5-difluoro-4′-(methylsulfonyl)biphenyl-4-yloxy)methyl)piperidine-1-carboxylate]: 1 nM; for `CCc1cnc(N2CCC(COc3c(F)cc(-c4ccc(-c5nnn(C)n5)cc4)cc3F)CC2)nc1` [Example C1, 2-(4-((3,5-difluoro-4′-(2-methyl-2H-tetrazol-5-yl)biphenyl-4-yloxy)methyl)piperidin-1-yl)-5-ethylpyrimidine]: 5 nM.
`CCc1cnc(N2CCC(COc3c(F)cc(-c4cnn(CCN(C)C)c4)cc3F)CC2)nc1` [Example K1, 2-(4-(4-((1-(5-ethylpyrimidin-2-yl)piperidin-4-yl)methoxy)-3,5-difluorophenyl)-1H-pyrazol-1-yl)-N,N-dimethylethanamine] showed an EC50 of 2070 nM.
`CCc1cnc(N2CCC(COc3c(F)cc(-c4ccc(S(C)(=O)=O)nc4)cc3F)CC2)nc1` [Example A22] registered an EC50 of 2 nM.
The compound `CC(C)(C)OC(=O)N1CCC(COc2c(F)cc(-c3cc[n+]([O-])cc3)cc2F)CC1` [Example E1, 4-(4-((1-(tert-butoxycarbonyl)piperidin-4-yl)methoxy)-3,5-difluorophenyl)pyridine 1-oxide] returned an EC50 of 38 nM.
Compound `CCc1cnc(N2CCC(COc3c(F)cc(-c4cnc(N5CCCC5)nc4)cc3F)CC2)nc1` [Example A16] had an EC50 of 171 nM.
In turn, `CCc1cnc(N2CCC(COc3c(F)cc(-c4ccc(S(=O)(=O)CC5(C)COC5)cc4)cc3F)CC2)nc1` [Example A3, 2-(4-((3,5-difluoro-4′-((3-methyloxetan-3-yl)methylsulfonyl)biphenyl-4-yloxy)methyl)piperidin-1-yl)-5-ethylpyrimidine] came in with an EC50 of 0.7 nM.
The compound `CCc1cnc(N2CCC(COc3c(F)cc(-c4cccc(Cc5nnn(C)n5)c4)cc3F)CC2)nc1` [Example C5] displayed an EC50 of 22 nM.
On to `CCc1cnc(N2CCC(COc3c(F)cc(-c4cnc(C(N)=O)nc4)cc3F)CC2)nc1` [Example A35], for which a half-maximal response (EC50) required 9 nM.
Turning to `CCc1cnc(N2CCC(COc3c(F)cc(-c4cnn(C)c4)cc3F)CC2)nc1` [Example A24], the EC50 amounted to 258 nM.
Turning to `COc1cc(-c2cc(F)c(OCC3CCN(C(=O)OC(C)(C)C)CC3)c(F)c2)ccn1` [Example A20], the concentration giving a half-maximal response (EC50) turned out to be 46 nM.
`CCCS(=O)(=O)c1ccc(-c2cc(F)c(OCC3CCN(C(=O)OC4(C)CC4)CC3)c(F)c2)c(C)n1` [Example F4, 1-methylcyclopropyl 4-((2,6-difluoro-4-(2-methyl-6-(propylsulfonyl)pyridin-3-yl)phenoxy)methyl)piperidine-1-carboxylate] displayed a concentration for a half-maximal effect (EC50) of 0.3 nM.
The same measure for `CCc1cnc(N2CCC(COc3c(F)cc(-c4ccc(-n5cncn5)nc4C)cc3F)CC2)nc1` [Example F1, 2-(4-((2,6-difluoro-4-(2-methyl-6-(1H-1,2,4-triazol-1-yl)pyridin-3-yl)phenoxy)methyl)piperidin-1-yl)-5-ethylpyrimidine]: 0.5 nM.
For `CN1CCN(C(=O)c2ncc(-c3cc(F)c(OCC4CCN(C(=O)OC5(C)CC5)CC4)c(F)c3)cn2)CC1` [Example J12], the EC50 came out at 14 nM. Compared with the last compound, the EC50 is about 28-fold higher.
On to `CCc1cnc(N2CCC(COc3c(F)cc(-c4ccc(Cn5ccnc5)cc4)cc3F)CC2)nc1` [Example H4], for which the EC50 worked out at 92 nM.
The same measure for `CCc1cnc(N2CCC(COc3c(F)cc(-c4ccc(-c5cnco5)cc4)cc3F)CC2)nc1` [Example G1, 5-(4′-((1-(5-ethylpyrimidin-2-yl)piperidin-4-yl)methoxy)-3′,5′-difluorobiphenyl-4-yl)oxazole]: 3 nM.
